Here are results for nine compounds from ChEMBL document CHEMBL1201862, “PubChem BioAssay data set” (2004).

In one experiment the target is T1, Caspase-6 (Homo sapiens, UniProt P55212).
T1 sequence (P55212 whole entry): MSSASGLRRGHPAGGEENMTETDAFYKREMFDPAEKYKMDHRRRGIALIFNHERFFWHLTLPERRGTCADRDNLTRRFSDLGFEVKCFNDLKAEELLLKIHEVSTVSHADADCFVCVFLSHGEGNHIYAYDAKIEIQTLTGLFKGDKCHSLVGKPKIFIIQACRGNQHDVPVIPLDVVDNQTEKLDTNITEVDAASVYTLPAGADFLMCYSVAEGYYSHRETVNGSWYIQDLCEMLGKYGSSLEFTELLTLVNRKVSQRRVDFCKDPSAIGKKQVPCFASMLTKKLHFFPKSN
Description: inhibition of CASP6 peptide cleavage – biochemical, VEID-R110 fluorescence, cherry-pick, dose response (AID 720632).

A further experiment concerns the target Prothrombin (Homo sapiens, UniProt P00734). Description: Thrombin 1536 HTS Dose Response Confirmation. [Related pubchem assays: 1046 (Thrombin 1536 HTS; hits were confirmed in this assay)]. It is filed as functional.
A short description of experiment [1]: HPDE-C7 pancreatic duct cell viability loss – fluorescence, HTS (AID 430). It is filed as functional, cell-based. Conditions: Homo sapiens.
Experiment [2] is described as follows: viability loss of HPDE-C7K cells – cell-based, fluorescence, HTS, primary screen (AID 431). The conditions noted are these: Homo sapiens. Type of experiment: functional.
Experiment [3] can be described thus: viability inhibitors of stage V gametocytes – luminescence, dose response (AID 1117278).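 Further: gametocytes exposed to compound for 24 hours.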 Type of experiment: functional, cell-based.
Experiment [4] is described as follows: viability loss in human Jurkat cells – cell-based, luminescence, cytotoxicity control for P. falciparum gametocyte viability project, dose response (AID 1117277).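 Further: potency reflects loss of cellular ATP meaning fewer viable cells.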 Type of experiment: functional.
For the next experiment, the target named is T2, Leucine aminopeptidase (Plasmodium falciparum 3D7, UniProt Q8IL11).
T2 sequence (Q8IL11 whole entry): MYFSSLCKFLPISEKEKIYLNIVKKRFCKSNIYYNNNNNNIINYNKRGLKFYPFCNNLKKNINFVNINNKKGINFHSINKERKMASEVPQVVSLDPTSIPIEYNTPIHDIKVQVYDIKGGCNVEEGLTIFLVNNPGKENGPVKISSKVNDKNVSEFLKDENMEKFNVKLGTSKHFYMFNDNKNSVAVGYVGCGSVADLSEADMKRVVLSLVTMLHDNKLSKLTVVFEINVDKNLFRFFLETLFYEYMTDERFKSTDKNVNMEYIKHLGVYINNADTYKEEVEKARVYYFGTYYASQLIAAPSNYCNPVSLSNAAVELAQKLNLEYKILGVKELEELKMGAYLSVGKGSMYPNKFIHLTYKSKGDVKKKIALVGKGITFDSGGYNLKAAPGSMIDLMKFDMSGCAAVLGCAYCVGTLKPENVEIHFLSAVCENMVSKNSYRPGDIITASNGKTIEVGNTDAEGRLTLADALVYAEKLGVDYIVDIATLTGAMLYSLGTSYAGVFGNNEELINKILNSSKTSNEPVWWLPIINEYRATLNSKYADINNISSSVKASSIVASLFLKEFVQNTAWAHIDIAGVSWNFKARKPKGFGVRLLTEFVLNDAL
Description: P. falciparum M17LAP inhibitors, primary screen, biochemical, fluorogenic H-Leu-NHMec substrate, 1536-well (AID 1619). It is filed as functional.

The target of experiment [5] is T3, Microphthalmia-associated transcription factor (Homo sapiens, UniProt O75030).
T3 sequence (O75030 whole entry): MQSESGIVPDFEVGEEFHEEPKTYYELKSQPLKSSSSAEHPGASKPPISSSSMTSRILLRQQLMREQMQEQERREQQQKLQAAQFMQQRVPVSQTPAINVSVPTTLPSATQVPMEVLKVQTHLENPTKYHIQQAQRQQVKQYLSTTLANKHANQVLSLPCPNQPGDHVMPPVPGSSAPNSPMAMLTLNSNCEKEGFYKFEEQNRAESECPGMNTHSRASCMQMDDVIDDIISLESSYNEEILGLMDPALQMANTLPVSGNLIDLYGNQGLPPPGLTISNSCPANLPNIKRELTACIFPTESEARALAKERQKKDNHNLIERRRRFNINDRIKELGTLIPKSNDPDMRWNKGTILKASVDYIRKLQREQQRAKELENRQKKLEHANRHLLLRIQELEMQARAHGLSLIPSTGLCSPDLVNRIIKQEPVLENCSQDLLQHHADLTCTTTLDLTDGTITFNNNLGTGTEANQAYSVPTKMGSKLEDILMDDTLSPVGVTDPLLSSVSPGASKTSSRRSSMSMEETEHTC
Description: reducers of TRPM1 reporter luminescence, concentration series – cell-based, SK-MEL-5, cherry-picked, set 3, MITF inhibitor project, dose response (AID 493073).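 Further: SK-MEL-5 melanoma cells with luciferase driven by the MITF target TRPM1 promoter.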 Type of experiment: functional.

Experiment [6] deals with T4, COUP transcription factor 2 (Homo sapiens, UniProt P24468).
T4 sequence (P24468 whole entry): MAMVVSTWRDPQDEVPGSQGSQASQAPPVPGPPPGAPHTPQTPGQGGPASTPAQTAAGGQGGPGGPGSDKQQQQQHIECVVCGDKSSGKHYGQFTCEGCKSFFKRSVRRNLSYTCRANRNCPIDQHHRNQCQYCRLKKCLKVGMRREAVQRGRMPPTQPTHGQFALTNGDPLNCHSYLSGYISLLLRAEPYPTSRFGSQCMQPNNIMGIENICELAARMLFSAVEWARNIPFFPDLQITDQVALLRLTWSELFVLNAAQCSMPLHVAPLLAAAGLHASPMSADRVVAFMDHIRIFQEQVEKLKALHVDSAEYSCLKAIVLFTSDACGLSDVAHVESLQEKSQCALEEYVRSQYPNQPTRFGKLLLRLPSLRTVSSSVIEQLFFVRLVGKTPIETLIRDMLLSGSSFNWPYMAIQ
Description: Luminescence-based cell-based high throughput dose response assay to identify inhibitors of COUP-TFII (NR2F2). It is filed as functional.

The target in experiment [7] is T5, Fatty acid synthase (Homo sapiens, UniProt P49327). Description: inhibition of human FAS-TE enzyme activity – biochemical, endpoint fluorescence intensity, uHTS hits, dose response (AID 624327).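 Further: fluorescence from hydrolysis of an O-methyl fluorescein acyl ester substrate by the enzyme.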 It is filed as functional.
T5 sequence (P49327 whole entry): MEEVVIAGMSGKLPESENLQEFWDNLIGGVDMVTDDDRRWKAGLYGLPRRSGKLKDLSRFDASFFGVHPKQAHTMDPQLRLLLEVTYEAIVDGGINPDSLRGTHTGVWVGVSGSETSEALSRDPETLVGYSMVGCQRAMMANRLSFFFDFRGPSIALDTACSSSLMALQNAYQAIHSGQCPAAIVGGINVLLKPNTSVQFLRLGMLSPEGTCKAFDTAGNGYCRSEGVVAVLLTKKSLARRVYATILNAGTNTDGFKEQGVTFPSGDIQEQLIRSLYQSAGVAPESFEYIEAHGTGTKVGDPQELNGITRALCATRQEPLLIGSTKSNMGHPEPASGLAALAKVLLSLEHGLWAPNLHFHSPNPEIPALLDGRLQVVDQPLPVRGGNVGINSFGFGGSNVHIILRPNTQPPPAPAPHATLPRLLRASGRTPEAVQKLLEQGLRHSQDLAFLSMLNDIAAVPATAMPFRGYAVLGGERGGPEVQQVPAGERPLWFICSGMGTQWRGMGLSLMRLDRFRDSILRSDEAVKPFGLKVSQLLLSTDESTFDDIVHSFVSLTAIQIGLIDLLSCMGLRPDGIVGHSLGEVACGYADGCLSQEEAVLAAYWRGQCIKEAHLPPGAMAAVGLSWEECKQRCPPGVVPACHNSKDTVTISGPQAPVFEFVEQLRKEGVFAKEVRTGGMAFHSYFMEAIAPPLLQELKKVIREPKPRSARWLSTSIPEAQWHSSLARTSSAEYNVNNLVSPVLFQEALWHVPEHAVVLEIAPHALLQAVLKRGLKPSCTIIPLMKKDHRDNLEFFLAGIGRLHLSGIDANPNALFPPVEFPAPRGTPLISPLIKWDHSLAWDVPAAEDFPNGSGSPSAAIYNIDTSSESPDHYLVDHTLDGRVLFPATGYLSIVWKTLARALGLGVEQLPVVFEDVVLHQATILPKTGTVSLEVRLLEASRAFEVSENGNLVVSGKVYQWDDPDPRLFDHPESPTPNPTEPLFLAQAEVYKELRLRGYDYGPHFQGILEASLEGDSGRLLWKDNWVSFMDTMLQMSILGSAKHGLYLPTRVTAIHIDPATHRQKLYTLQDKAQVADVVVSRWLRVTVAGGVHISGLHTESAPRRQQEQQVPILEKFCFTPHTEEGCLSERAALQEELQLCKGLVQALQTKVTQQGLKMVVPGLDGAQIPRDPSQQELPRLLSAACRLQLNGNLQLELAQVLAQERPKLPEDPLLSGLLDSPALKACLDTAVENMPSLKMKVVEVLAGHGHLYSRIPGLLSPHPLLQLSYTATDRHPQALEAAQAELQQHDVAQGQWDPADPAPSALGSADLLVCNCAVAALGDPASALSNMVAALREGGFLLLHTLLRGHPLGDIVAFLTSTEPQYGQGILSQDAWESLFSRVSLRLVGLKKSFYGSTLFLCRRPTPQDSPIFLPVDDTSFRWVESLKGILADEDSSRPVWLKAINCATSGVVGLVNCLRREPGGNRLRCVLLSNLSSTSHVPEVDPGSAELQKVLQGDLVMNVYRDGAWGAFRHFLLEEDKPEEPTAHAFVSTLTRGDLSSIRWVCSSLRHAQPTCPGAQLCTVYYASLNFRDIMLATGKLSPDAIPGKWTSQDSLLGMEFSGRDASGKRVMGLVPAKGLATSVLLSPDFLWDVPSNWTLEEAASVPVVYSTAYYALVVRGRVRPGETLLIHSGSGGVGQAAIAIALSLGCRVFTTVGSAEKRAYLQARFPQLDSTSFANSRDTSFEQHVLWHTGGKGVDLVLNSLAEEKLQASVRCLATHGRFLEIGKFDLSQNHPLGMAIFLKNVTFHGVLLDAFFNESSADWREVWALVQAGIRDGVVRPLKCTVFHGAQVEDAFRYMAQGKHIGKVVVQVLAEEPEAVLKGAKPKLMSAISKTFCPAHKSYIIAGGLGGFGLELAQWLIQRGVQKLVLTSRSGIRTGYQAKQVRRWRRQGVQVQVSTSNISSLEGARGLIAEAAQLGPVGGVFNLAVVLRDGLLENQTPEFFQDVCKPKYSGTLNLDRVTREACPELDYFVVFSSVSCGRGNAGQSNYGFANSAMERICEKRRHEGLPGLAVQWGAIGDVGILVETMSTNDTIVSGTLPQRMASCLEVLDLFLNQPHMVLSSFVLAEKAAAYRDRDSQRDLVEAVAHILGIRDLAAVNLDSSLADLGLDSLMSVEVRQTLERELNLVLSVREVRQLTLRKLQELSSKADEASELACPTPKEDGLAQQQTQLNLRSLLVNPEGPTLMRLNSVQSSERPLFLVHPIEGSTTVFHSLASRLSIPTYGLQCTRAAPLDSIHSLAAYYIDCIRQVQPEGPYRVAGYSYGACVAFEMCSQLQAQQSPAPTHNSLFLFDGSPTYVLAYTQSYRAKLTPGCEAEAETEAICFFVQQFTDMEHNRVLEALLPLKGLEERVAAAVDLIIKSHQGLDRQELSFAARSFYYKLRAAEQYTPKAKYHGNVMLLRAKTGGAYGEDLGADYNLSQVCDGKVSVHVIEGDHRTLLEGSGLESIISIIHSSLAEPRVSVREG
The target of experiment [8] is T5, Fatty acid synthase. Description: inhibition of human FAS-TE enzyme activity – biochemical, kinetic fluorescence intensity, dose response (AID 624326).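 Further: rate of fluorescence rise from hydrolysis of a fluorogenic O-methyl fluorescein ester substrate.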 Type of experiment: functional.
Experiment [9] concerns the target Luciferin 4-monooxygenase (Photinus pyralis, UniProt P08659). Description: Counter Screen for Luciferase-based Assay Positives. [Related pubchem assays: 620, 618, 411 ]. A general note: The purpose of a counterscreen is to sort out artefacts and off-target activity.
For a further experiment, the system named is HT-1080. Description: HT1080 cell viability loss – fluorescence readout (AID 620). Conditions: Homo sapiens. Type of experiment: functional, cell-based.
Experiment [10] is described as follows: growth inhibition of PfATP4-mutant resistant parasites – NITD609-resistant line, SYBR Green, dry powder, dose response (AID 1159571).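 Further: parasites synchronized at ring stage by sorbitol before testing.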 It is filed as functional, cell-based.
Experiment [11] can be described thus: Dd2 malaria parasite growth inhibition potency – SYBR Green, dry powder samples, dose response (AID 1159566).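 Further: potency for growth inhibition with lower SYBR green DNA signal.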 It is filed as functional, cell-based.
Experiment [12] can be described thus: growth inhibition of yeast DHODH-expressing 3D7 parasites – SYBR Green, dry powder samples, dose response (AID 1159570).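 Further: parasite growth measured after 72 hours of compound exposure.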 Type of experiment: functional, cell-based.
Experiment [13] in a line: P. falciparum Dd2 growth inhibitors, dose response, SYBR Green, cherry-picked samples (AID 1159567). It is filed as functional, cell-based.

The source made the active and inactive calls.

Chain of Luciferin 4-monooxygenase (P08659 whole entry): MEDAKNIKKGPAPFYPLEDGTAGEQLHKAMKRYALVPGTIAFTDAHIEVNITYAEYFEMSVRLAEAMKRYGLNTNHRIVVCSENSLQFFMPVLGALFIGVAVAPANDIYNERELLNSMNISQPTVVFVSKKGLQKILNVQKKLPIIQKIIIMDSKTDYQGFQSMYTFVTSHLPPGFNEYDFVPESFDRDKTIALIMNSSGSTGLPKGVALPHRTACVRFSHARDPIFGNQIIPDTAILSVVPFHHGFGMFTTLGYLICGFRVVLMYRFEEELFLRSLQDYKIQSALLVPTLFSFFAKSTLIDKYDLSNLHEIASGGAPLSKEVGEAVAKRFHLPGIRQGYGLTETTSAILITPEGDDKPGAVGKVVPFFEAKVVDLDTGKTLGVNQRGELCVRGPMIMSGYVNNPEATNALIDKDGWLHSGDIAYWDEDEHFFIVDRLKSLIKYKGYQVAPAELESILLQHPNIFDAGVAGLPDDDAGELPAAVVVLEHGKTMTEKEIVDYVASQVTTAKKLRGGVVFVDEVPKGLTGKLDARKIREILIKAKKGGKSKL

On to `CC(=O)N1CCc2cc(Br)cc(S(=O)(=O)N3CCC(C(=O)O)CC3)c21`, for which the AC50 at Caspase-6 was 30.4 µM (active).

As for `CCOC(=O)C(CC)(CCC(=O)OC)c1csc(Nc2ccccc2O)n1` (stereo not given), the IC50 on Prothrombin was > 50 µM (not active).

Regarding `O=C(CSc1nnc2c3c4c(sc3ncn12)CCCC4)NCc1ccco1`, the concentration for a half-maximal effect (EC50) in [1] was > 20 µM (not active); in experiment [2], 14.5 µM (active).

On to `O=C(COC(=O)c1cncc(Br)c1)NC1CCCCCC1`, for which the IC50 in experiment [3] was > 109 µM (inactive); in experiment [4] it was > 83.3 µM (inactive).

With `CC(C)(C)c1ccc(/C=N/Nc2ccc(C(=O)O)cc2)cc1`, the IC50 is 13.3 µM (active) on Leucine aminopeptidase, > 9.49 µM (active) in [6], 7.49 µM (active) at Fatty acid synthase [7] and 8.76 µM (active) on Fatty acid synthase [8]. In [5], the AC50 is 6.03 µM (active).

On to `COc1ccc(-c2cn3nc4c(nc3n2)CCCC4)cc1`, for which the EC50 in experiment [9] was 460 nM (active); in the experiment with HT-1080, > 50 µM (not active).

As to `COc1ccc(C#Cc2ccc3c(c2)O[C@@H](CN(C)S(=O)(=O)c2ccccc2F)[C@@H](C)CN([C@@H](C)CO)S3(=O)=O)cc1`, the AC50 in experiment [10] was 1.93 µM (active); in [11], 1.42 µM (active); in experiment [12], 1.71 µM (active); in experiment [13], 2.65 µM (active).

As for `O=C(COc1cc(Cl)c(Cl)cc1Cl)N1CCN(c2ccccn2)CC1`, the IC50 on Prothrombin is listed as > 50 µM (not active).

Turning to `CC(=O)C[C@@H](O)CC(=O)[C@H]1OC(=O)CC/C=C\Cc2ccccc21`, the IC50 in [3] is > 109 µM (inactive); in experiment [4] it was > 83.3 µM (inactive).

As a reminder, the AC50 is the midpoint of the concentration-response curve, whichever way the signal moves. One may read the IC50 as the concentration needed to halve the response being measured. Usually EC50 stands for the concentration needed to bring the measured effect to its halfway point.
